Results: article PMC11053488, “Influence of Aza-Glycine Substitution on the Internalization of Penetratin” (Pharmaceutics, 2024)

Experiments:
A-431 cells [1] = assay: Cellular uptake of Cf-labelled peptides by flow cytometry; type: cell-based; details: 5 µM, 90 min, 37 °C, compared with Pen(desMet)
Experimental: The cells were treated with a solution of peptides at 5 µM concentration at 37 °C for 90 min. The measured fluorescence values were corrected with the autofluorescence of the untreated cells. To determine the toxicity of the conjugates, the live/dead cell ratio was calculated.
Figure 2 Comparison of the cellular uptake of the labelled penetratin derivatives into A-431 cells. Cells were incubated with 5 µM peptide solution for 90 min at 37 °C. The fluorescence intensity of the cells was determined by flow cytometry. The fluorescence intensity is relative to Pen(desMet) at 5 µM (100%). Data represent the mean ± standard deviation (SD). Any significant difference to the control was measured using the Student’s t test.

A-431 cells [2] = assay: Cellular uptake after pretreatment with endocytosis inhibitors or ATP depletion, flow cytometry; details: then peptide 5 µM 90 min; for Cellular uptake with NaN3 and DOG, % of the untreated control: NaN3 500 µM and 2-deoxyglucose 250 mM pretreatment 30 min (ATP depletion), mean
Experimental: The cells were incubated for 24 h at 37 °C. The cells were treated with a serum-free medium as a negative control and with peptide solutions in 5 µM concentration in a serum-free medium for 90 min. After the incubation, the cells were washed, and 100 µL of trypsin was applied for 10 min to eliminate peptides adhered to the membrane and to detach the cells from the plates. Trypsin activity was stopped by adding 800 µL of HPMI buffer (glucose, NaHCO3, NaCl, HEPES, KCl, MgCl2, CaCl2, Na2HPO4·2H2O) containing 10% fetal bovine serum. Cells were then transferred from the plates to FACS tubes. Centrifugation of the cells took place at 216× g at 4 °C for 5 min, and the supernatant was removed. Resuspension of the cells was performed by 250 µL HPMI, followed by fluorescence intensity measurements using a flow cytometer (BDLSR II, BD Bioscience, San Jose, CA, USA). The analysis of the data was performed using FACSDiVa 5.0 software. To study the effect of inhibitors, cells were pretreated with the solution of inhibitors for 30 min, followed by the treatment with the peptide solution at 5 µM for 90 min. Inhibition of macropinocytosis was performed by using 5-(N-Ethyl-N-isopropyl)amiloride (EIPA) (500 µM) [46], of clathrin-mediated endocytosis by using chlorpromazine (CPZ) (300 µM) [47]. The caveolae/lipid raft-mediated endocytosis was prevented with methyl-β-cyclodextrin (mBCD) (36 mM) [48], and colchicine (Col) (200 mM) was employed to determine the role of microtubules and consequently, the significance of pinocytosis [49]. To inhibit all endocytosis routes, sodium azide (NaN3) (500 µM) and 2-Deoxyglucose (DOG) (250 mM) was used.
The following endocytic inhibitors were used: EIPA (5-(N-ethyl-N-isopropyl) amiloride) as an inhibitor of macropinocytosis, chlorpromazine (CPZ) as an inhibitor of a clathrin-mediated endocytosis, and the cholesterol-depleting reagent methyl-beta-cyclodextrin (mBCD) was used to inhibit the caveolae-mediated endocytosis. Finally, colchicine (COL) was applied to inhibit microtubule formation.
A-431 cells were pretreated with the EIPA (500 µM), CPZ (300 µM), mBCD (36 mM), COL (200 mM), NaN3 (500 µM), and DOG (250 mM) for 30 min, followed by treatment with peptides (5 µM) for 90 min. Any significant difference from the control was determined by Student’s t-test (* p < 0.05). Data represent the mean ± standard deviation (SD).The asterisks show a significant difference between the control Pen(desMet) and its derivatives (* p < 0.05, ** p < 0.01, *** p < 0.001).
In addition, the A-431 cells were pretreated with sodium azide (NaN3) and 2-deoxyglucose (DOG) to study the energy-independent pathways. This pretreatment results in ATP depletion and therefore the inhibition of energy-dependent pathways (Figure 3).

Cf-RQIKI-azaGly-FQNRRKWKK-NH2 [Trp48aGlyPen(desMet), Cf-labelled Pen(desMet) with Trp48 replaced by aza-glycine]
Cellular uptake (in words) (A-431 cells [1]): dramatically decreased the cellular uptake

Cf-RQIKIGFQNRRKWKK-NH2 [Trp48GlyPen(desMet), Cf-labelled Pen(desMet) with Trp48 replaced by glycine]
Cellular uptake (in words) (A-431 cells [1]): dramatically decreased the cellular uptake

Cf-RQIKIWFQNRRKGKK-NH2 [Trp56GlyPen(desMet)]
Cellular uptake with NaN3 and DOG, % of the untreated control (A-431 cells [2]): 50%

Cf-RQIKIWFQNRRKWKK-NH2 [Pen(desMet)]
Cellular uptake with NaN3 and DOG, % of the untreated control (A-431 cells [2]): 79%

Cf-RQIKIWFQNRRK-azaGly-KK-NH2 [Trp56aGlyPen(desMet)]
Cellular uptake with NaN3 and DOG, % of the untreated control (A-431 cells [2]): 97%
Effect of azide/DOG treatment on cellular uptake (in words) (A-431 cells [2]; NaN3 500 µM and DOG 250 mM pretreatment 30 min): did not have any effect
